# Measurements as given in patent US20120190669A1, “OXINDOLE COMPOUNDS” (CYLENE PHARMACEUTICALS, INC., priority 2008, published 2012).
# Assays:
# K-562 = assay: Alamar Blue cell proliferation assay, K-562; format: cell-based; conditions: Homo sapiens, K562, Table 4, read-out: AB: K-562
# Protocol: (§1) A representative cell-proliferation assay protocol using Alamar Blue dye (stored at 4° C., use 20 ul per well) is described hereafter.
# (§2) 96-Well Plate Setup and Compound Treatment
# (§3) a. Split and trypsinize cells.
# (§4) b. Count cells using hemocytometer.
# (§5) c. Plate 4,000-5,000 cells per well in 100 μl of medium and seed into a 96-well plate according to the following plate layout. Add cell culture medium only to wells B10 to B12. Wells B1 to B9 have cells but no compound added.
# (§6) d. Add 100 μl of 2× drug dilution to each well in a concentration shown in the plate layout above. At the same time, add 100 μl of media into the control wells (wells 1310 to B12). Total volume is 200 μl/well.
# (§7) e. Incubate four (4) days at 37° C., 5% CO2 in a humidified incubator.
# (§8) f. Add 20 μl Alamar Blue reagent to each well.
# (§9) g. Incubate for four (4) hours at 37° C., 5% CO2 in a humidified incubator.
# (§10) h. Record fluorescence at an excitation wavelength of 544 nm and emission wavelength of 590 nm using a microplate reader.
# (§11) In the assays, cells are cultured with a test compound for approximately four days, the dye is then added to the cells and fluorescence of […] dye is detected after approximately four hours. Different types of cells can be utilized in the assays (e.g., HCT-116 human colorectal carcinoma cells, PC-3 human prostatic cancer cells and MiaPaca human pancreatic carcinoma cells).
# [1] = test system: MiaPaca human pancreatic carcinoma cells; assay: Alamar Blue cell proliferation assay, MiaPaCa; format: cell-based; conditions: MIA PaCa-2, Table 4, read-out: AB: MiaPaCa
# Protocol: as §1, §2, §3, §4, §5, §6, §7, §8, §9, §10, §11
# THP-1 = assay: Alamar Blue cell proliferation assay, THP-1; format: cell-based; conditions: Homo sapiens, Table 4, read-out: AB: THP-1
# Protocol: as §1, §2, §3, §4, §5, §6, §7, §8, §9, §10, §11
# MV-4-11 = assay: Alamar Blue cell proliferation assay, MV-4-11; format: cell-based; conditions: Homo sapiens, MV4-11, Table 4, read-out: AB: MV-4-11
# Protocol: as §1, §2, §3, §4, §5, §6, §7, §8, §9, §10, §11
# [2] = test system: PC-3 human prostatic cancer cells; assay: Alamar Blue cell proliferation assay, PC3; format: cell-based; conditions: Table 4, read-out: AB: PC3
# Protocol: as §1, §2, §3, §4, §5, §6, §7, §8, §9, §10, §11
# phospho BAD = phospho BAD cell-based data; conditions: Table 4
# phospho FLT3 = phospho FLT3 cell-based data; conditions: Table 4
# MDAMB-231 = assay: Alamar Blue cell proliferation assay, MDAMB-231; format: cell-based; conditions: Homo sapiens, MDA-MB-231, Table 4, read-out: AB: MDAMB231
# Protocol: as §1, §2, §3, §4, §5, §6, §7, §8, §9, §10, §11
# BxPC3 = assay: Alamar Blue cell proliferation assay, BxPC3; format: cell-based; conditions: Homo sapiens, BXPC-3, Table 4, read-out: AB: BxPC3
# Protocol: as §1, §2, §3, §4, §5, §6, §7, §8, §9, §10, §11
# recombinant human FLT-3 = target: T1, recombinant human FLT-3 (Homo sapiens, UniProt P36888); assay: FLT-3 kinase activity, cell free in vitro assay; format: biochemical; conditions: Table 7; 10 uM ATP; read-out: FLT3_RB: IC50
# T1 sequence (P36888 27-993): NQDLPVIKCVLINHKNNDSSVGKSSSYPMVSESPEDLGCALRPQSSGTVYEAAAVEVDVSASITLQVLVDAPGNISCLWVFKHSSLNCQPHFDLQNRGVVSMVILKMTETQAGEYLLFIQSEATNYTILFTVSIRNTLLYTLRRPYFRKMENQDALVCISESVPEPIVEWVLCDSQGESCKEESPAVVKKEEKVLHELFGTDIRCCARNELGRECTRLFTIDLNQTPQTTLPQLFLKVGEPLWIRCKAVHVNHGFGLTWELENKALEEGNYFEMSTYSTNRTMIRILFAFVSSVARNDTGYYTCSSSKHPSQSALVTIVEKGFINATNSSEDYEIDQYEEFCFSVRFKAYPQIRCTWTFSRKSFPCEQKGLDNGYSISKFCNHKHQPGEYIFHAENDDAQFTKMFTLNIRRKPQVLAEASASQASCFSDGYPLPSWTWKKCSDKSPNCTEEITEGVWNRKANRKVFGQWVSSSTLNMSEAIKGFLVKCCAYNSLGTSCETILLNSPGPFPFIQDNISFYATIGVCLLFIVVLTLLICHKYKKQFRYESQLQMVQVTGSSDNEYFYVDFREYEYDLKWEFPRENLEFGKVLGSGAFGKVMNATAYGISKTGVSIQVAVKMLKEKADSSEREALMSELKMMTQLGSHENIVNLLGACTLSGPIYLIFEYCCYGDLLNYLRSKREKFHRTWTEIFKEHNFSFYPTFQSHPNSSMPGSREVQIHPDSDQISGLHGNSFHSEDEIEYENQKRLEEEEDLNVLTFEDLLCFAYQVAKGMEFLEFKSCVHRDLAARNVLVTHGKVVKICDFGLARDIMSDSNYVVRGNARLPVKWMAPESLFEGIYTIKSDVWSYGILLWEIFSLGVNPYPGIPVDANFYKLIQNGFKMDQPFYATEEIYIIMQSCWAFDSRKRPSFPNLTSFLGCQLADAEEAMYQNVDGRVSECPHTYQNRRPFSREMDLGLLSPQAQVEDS
# [3] = test system: leukemic cells from AML patients; conditions: Fedorov et al., PNAS 104(51); cited from earlier work
# MV-4-11 (AML) xenograft = conditions: 2008 AACR Annual Meeting, Abstract No. 4974; cited from earlier work
# MOLM-13 (AML) xenograft = conditions: 2008 AACR Annual Meeting, Abstract No. 4974; cited from earlier work
# recombinant PIM-1 = recombinant PIM-1 (Homo sapiens, UniProt P11309); assay: PIM-1 kinase assay (radiometric, 15 uM ATP, DMSO 4%); format: biochemical; conditions: Table 4; 15 um ATP; read-out: PIM1: IC50 (15 um ATP)
# recombinant human PIM2 = recombinant human PIM2 (Homo sapiens, UniProt Q9P1W9); assay: PIM-2 assay (radiometric); format: biochemical; conditions: Table 8; read-out: PIM2 IC50
# Protocol: Test compounds dissolved and diluted in DMSO ([…]) were added to a reaction mixture comprising […] of 5× Reaction Buffer (40 mM MOPS pH 7.0, 5 mM EDTA), […] of recombinant human PIM2 solution (4 ng PIM-2 dissolved in dilution buffer (20 mM MOPS pH 7.0; EDTA 1 mM; 5% Glycerol; 0.01% Brij 35; […]; […] 2-mercaptoethanol; 1 mg/ml BSA)) and 8 ul of water. Reactions were initiated by the addition of 10 ul of ATP Solution (49% (15 mM MgCl2; 75 uM ATP) 1% ([γ-33P]ATP: Stock 1 mCi/100 μl; 3000 Ci/mmol (Perkin Elmer)) and 10 ul of substrate peptide solution ([…], dissolved in water at a concentration of 1 mM), Reactions were maintained for 10 min at 30° C. The reactions were quenched with 100 ul of 0.75% Phosphoric acid, then transferred to and filtrered through a Phosphocellulose filter plate (Millipore, MSPH-N6B-50). After washing each well 4 times with 0.75% Phosphoric acid, scintillation fluid (20 uL) was added to each well and the residual radioactivity was measured using a Wallac […] counter.
# Pim-3 (h) = target: T2, Pim-3 (h) (Homo sapiens, UniProt Q86V86); assay: PIM-3 assay run at Millipore; format: biochemical; conditions: Table 8; read-out: PIM3 IC50
# T2 construct: purchased Millipore (printed 'Millopore'; assay run as a service at the vendor)
# Protocol: The PIM-3 assay was run at Millopore. The following is the assay as described in the Millopore protocol guide. […] (specific activity approx. 500 cpm/pmol, concentration as required). The reaction is initiated by the addition of the MgATP mix. After incubation for 40 minutes at room temperature, the reaction is stopped by the addition of 5 μL of a 3% phosphoric acid solution. 10 μL of the reaction is then spotted onto a P30 filtermat and washed three times for 5 minutes in 75 mM phosphoric acid and once in methanol prior to drying and scintillation counting.
# Sequence of recombinant PIM-1 (P11309 whole entry): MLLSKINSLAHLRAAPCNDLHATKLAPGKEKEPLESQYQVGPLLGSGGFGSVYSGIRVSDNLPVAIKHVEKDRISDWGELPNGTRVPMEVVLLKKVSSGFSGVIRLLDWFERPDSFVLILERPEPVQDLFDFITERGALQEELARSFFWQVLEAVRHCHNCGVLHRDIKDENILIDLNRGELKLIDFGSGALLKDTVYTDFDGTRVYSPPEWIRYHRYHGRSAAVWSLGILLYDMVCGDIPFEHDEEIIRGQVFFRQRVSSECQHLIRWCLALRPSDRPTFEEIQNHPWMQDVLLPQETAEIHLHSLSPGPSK
# Sequence of recombinant human PIM2 (Q9P1W9 whole entry): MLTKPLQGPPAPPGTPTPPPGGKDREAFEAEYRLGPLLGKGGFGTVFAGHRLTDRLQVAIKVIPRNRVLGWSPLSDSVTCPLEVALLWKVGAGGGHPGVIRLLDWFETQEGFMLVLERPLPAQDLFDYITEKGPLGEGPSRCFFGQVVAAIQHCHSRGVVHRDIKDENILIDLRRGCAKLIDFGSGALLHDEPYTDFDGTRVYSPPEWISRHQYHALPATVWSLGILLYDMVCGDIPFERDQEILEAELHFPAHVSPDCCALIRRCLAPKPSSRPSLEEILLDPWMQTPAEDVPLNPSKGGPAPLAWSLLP
Structure (SMILES),IC50 (K-562) [nM],IC50 (MV-4-11) [nM],IC50 (phospho BAD) [nM],IC50 (phospho FLT3) [nM],IC50 (recombinant human FLT-3) [nM],further results
O=C1Nc2ccc(Cl)cc2/C1=C\c1ccc(-c2cccc(C(=O)NCCCO)c2)o1,> 10000,608,3500,> 10000,,IC50 [1]: > 30000 nM; IC50 (THP-1): > 30000 nM; IC50 [2]: > 30000 nM
C/C(=C1\C(=O)Nc2ccc(Cl)cc21)c1ccc(-c2cccc(C(=O)N3CCCN(C)CC3)c2)o1,777,178,1760,9060,,IC50 (MDAMB-231): 816 nM; IC50 (BxPC3): 785 nM
O=C1Nc2ccccc2/C1=C\c1ccc(-c2ccc(C(=O)NCCN3CCCC3)cc2)o1,,,,,99,
CN(C)C[C@@H]1CCn2cc(c3ccccc32)C2=C(C(=O)NC2=O)c2cn(c3ccccc23)CCO1 [Ly5333′531],,,,,,cell growth and cell death in leukemic cells from AML patients [3]: suppressed cell growth and induced cell death
CN1CCC(CNc2ccc3ncc(-c4cccc(OC(F)(F)F)c4)n3n2)CC1 [SGI-1776],,,,,,tumor regression in MV-4-11 (AML) xenograft model (MV-4-11 (AML) xenograft): significant tumor regression; tumor regression in MOLM-13 (AML) xenograft model (MOLM-13 (AML) xenograft): significant tumor regression
CCN(CC)CCC(=O)Nc1cccc(-c2ccc(/C=C3/C(=O)Nc4ccccc43)o2)c1 [drawing 235],472,349,1410,> 10000,,IC50 [1]: 101 nM; IC50 (THP-1): 3770 nM; IC50 (recombinant PIM-1): 259 nM; IC50 [2]: 3930 nM
O=C(CN1CCCC1)Nc1cccc(-c2ccc(/C=C3/C(=O)Nc4ccccc43)o2)c1 [drawing 236],1370,350,2130,> 10000,,IC50 [1]: > 10000 nM; IC50 (THP-1): 3860 nM; IC50 (recombinant PIM-1): 549 nM; IC50 [2]: 1350 nM
O=C1Nc2ccc(Cl)cc2/C1=C\c1ccc(-c2cccc(C(=O)NCCN(CCO)CCO)c2)o1 [drawing 238],1610,288,609,> 10000,,IC50 [1]: > 30000 nM; IC50 (THP-1): 2900 nM; IC50 (recombinant PIM-1): 81 nM; IC50 [2]: > 30000 nM
O=C1Nc2ccccc2/C1=C\c1ccc(-c2ccc(Cl)c(C(=O)NCCN3CCCC3)c2)o1 [drawing 261],,,,,211,
C/C(=C1\C(=O)Nc2ccc(Cl)cc21)c1ccc(-c2ccc(C(=O)N3CCCN(C)CC3)cc2)o1 [drawing 336],,,,,,IC50 (recombinant human PIM2): < 500 nM; IC50 (Pim-3 (h)): < 1000 nM
CN1CCCN(C(=O)c2ccc(-c3ccc(/C=C4/C(=O)Nc5ccc(Cl)cc54)o3)cc2)CC1 [drawing 337],,,,,,IC50 (recombinant human PIM2): < 500 nM; IC50 (Pim-3 (h)): < 1000 nM

# Second part, led by results:
IC50 (K-562) [nM],IC50 (MV-4-11) [nM],IC50 (phospho BAD) [nM],IC50 (phospho FLT3) [nM],IC50 (recombinant human FLT-3) [nM],Structure (SMILES),further results
,,,,306,O=C1Nc2ccc(F)cc2/C1=C\c1ccc(-c2cccc(C(=O)NC3CC3)c2)o1 [drawing 263],
,,,,147,O=C1Nc2ccc(F)cc2/C1=C\c1ccc(-c2cccc(C(=O)NCc3ccncc3)c2)o1 [drawing 264],
,,,,100,Cn1cncc1CNC(=O)c1cccc(-c2ccc(/C=C3/C(=O)Nc4ccc(F)cc43)o2)c1 [drawing 265],
